Molecular target: T1, ASICs (Mus musculus, UniProt Q6NXK8)
T1 construct: Primary neuronal cultures were prepared from embryonic Swiss mice at 15 to 16 days of gestation; endogenous in cells
T1 sequence (Q6NXK8 1-526): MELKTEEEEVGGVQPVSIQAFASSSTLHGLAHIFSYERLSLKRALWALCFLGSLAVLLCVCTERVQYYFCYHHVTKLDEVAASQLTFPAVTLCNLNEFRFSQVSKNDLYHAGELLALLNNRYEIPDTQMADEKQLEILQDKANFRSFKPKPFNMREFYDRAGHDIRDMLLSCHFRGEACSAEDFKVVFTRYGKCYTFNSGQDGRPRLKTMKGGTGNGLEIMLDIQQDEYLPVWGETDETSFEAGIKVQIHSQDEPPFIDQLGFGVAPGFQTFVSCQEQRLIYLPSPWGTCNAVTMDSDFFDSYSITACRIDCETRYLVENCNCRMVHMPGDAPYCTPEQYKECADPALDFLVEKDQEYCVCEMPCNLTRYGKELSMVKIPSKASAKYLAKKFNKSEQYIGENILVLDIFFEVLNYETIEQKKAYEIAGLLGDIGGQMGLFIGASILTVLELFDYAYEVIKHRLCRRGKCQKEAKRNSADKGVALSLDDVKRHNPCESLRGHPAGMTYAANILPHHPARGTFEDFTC
Test: Acid (pH 7.0/7.1)-induced membrane depolarization and neuronal firing, current-clamp recording
Type: cell-based
Source text: Unlike ischemia, only moderate pH changes (e.g., ˜0.3 pH unit) are reported in brain parenchyma during seizures (Chesler et al., 1988: Chesler et al., 1992), although pH in the synaptic cleft may be much lower (Chesler et al., 1992; Wemmie et al., 2006). […] One possibility is that voltage-clamp recording has relatively low sensitivity to resolve small current in whole-cell configuration. To provide more evidence that the decreases of pHo to the level seen in epilepsy can indeed activate the ASICs and cause neuronal excitation, we have also used current-clamp recording to study changes of membrane depolarization and neuronal firing by small changes of pHo. Due to the large input resistance of most CNS neurons (e.g., ˜500 MΩ), even a small membrane current (e.g., 10-20 pA, which is difficult to resolve in voltage-clamp recording in general) can induce significant membrane depolarization in current-clamp conditions. Mouse cortical neurons were used for current-clamp recordings 14 days after the culture.
Cortical neuronal culture. Primary neuronal cultures were prepared from embryonic Swiss mice at 15 to 16 days of gestation according to our previously described techniques (Xiong et al., 2004). In brief, cerebral cortices from 10 to 12 embryos were dissected and incubated with 0.05% trypsin-EDTA for 10 min, dissociated by trituration with a fire-polished glass pipette, and plated on poly-L-ornithine-coated culture dishes at a density of 0.5×10^6 cells per dish. Neurons were cultured with Neurobasal medium supplemented with B27 (Invitrogen). The cultures were maintained at 37° C. in a humidified 5% CO2 atmosphere incubator and were used for experiments after 12-14 days.
Patch clamp techniques. Whole-cell voltage-clamp and current-clamp recordings were performed as described in our previous studies (Xiong et al., 2004). […] Whole-cell currents were recorded using Axopatch 200B amplifiers with pCLAMP software (Axon Instruments, CA, USA). […]

Molecule	effect on acid-induced neuronal excitation (membrane depolarization, firing rate) (pH 7.0, amiloride 100 μM or synthetic PcTX1 20 nM)	effect on acid-induced depolarization and firing of action potentials (pH 7.1)
NC(N)=NC(=O)c1nc(Cl)c(N)nc1N [amiloride, 3,5-diamino-6-chloro-N(diaminomethylidene)pyrazine-2-carboxamide]	largely and significantly reduced	
Psalmotoxin 1 [PcTX1]		sensitive to PcTX1 inhibition

— US7892764B2, “System for seizure suppression” (priority 2006, dated 2011)
